The source of these data is article PMC12775819, “Optimizing PSMA-617-based inhibitors through charged linker modifications: Insights into structure-activity relationships” (Theranostics, 2026).

Series [1] is described as follows: Partition coefficient (logD), n-octanol/PBS pH 7.4. The format is physicochemical. The following applies: 68Ga-labeled compounds, mean ± SD; for logD: read-out: Partition Coefficient [logDoctanol/PBS]. The method, then:
To determine the lipophilicity expressed as distribution coefficient (logD), a two-phase system of n-octanol (500 µl) and phosphate buffered saline (PBS) (490 µl) at pH 7.4 was used (n = 4). Compounds were radiolabeled with [^68Ga]Ga^3+ and the mixture diluted to a concentration of 0.25 µM in PBS. 10 µl of the 0.25 µM dilution were added to the n-octanol / PBS mixture. After extensive mixing, the 2-phase system was centrifuged for 10 min at 14,000 rpm and 4 °C. Two samples from each phase (100 µl) were taken and measured in a γ-gamma counter (PerkinElmer, Waltham, USA). […] The data is presented as the mean value with the standard deviation (SD).

Series [2] deals with T1, PSMA (Homo sapiens, UniProt Q04609).
T1 construct: incubated with [^68Ga]Ga-PSMA-10 (0.8 nM) and LNCaP cells (10^5 cells/well) for 45 min at room temperature; host or cells: LNCaP (human prostate carcinoma lymph node metastasis)
The experiment in a line: Competitive cell binding (IC50) against [68Ga]Ga-PSMA-10 on LNCaP cells. The following applies: unlabeled precursors vs [68Ga]Ga-PSMA-10 (0.8 nM), 45 min, room temperature, ± SD. As to the method: (§1) The PSMA-positive human cell line LNCaP (human lymph node carcinoma of the prostate; ATCC CRL-1740) was cultivated adherently at 37 °C and humidified 5% CO2 with RPMI-1640 (Thermo Fisher Scientific, Germany) supplemented with 10% fetal bovine serum (Sigma-Aldrich, Germany), 1% sodium pyruvate (Life Technologies, Germany) and 1% penicillin/[…] (Thermo Fisher Scientific, Germany). A mixture of trypsin/ethylenediaminetetraacetic acid (0.05% / 0.02%; Thermo Fisher Scientific, Germany) was used for cell harvesting (last authentication: April 2024).
To determine the binding affinity of the investigated compounds, competitive cell binding studies were performed with ^68Ga-labeled PSMA-10. Dilution series of twelve concentrations in medium were prepared from the precursor peptides PS1 - PS11 including concentrations of 0, 0.5, 1, 2.5, 5, 10, 25, 50, 100, 500, 1,000, and 5,000 nM. The assay was performed on 96-well filter plates (Merck, Darmstadt, Germany). Medium (100 µl per well) was added before the experiment and incubated for 1 h at room temperature to block non-specific binding. The medium was removed and the diluted compounds were incubated with [^68Ga]Ga-PSMA-10 (0.8 nM) and LNCaP cells (10^5 cells/well) for 45 min at room temperature (total volume 100 µl/well). Cells were washed with PBS buffer (2× 100 µl, 1× 200 µl) over a MultiScreen 96-well vacuum filtration system (Merck Millipore, Billerica, USA). The filters containing the retained cells were punched out and the radioactivity was quantified using a γ-counter. By applying a non-linear regression algorithm (GraphPad Prism 8.0.1., Boston, USA), the specific inhibitory concentration of 50% (IC50) could be determined. The experiment was repeated at least three times per compound and the data presented as IC50 ± standard deviation.

In series [3] the test system is PSMA-positive LNCaP cells. The series can be described thus: Surface binding and internalization of 68Ga-labeled compounds. The format is cell-based, human. Conditions: for Internalization Block / Surface Binding Block / Internalization / Surface Binding: 30 nM, 45 min, 37 °C; for Internalization Block / Surface Binding Block: blocked with 2-PMPA 500 µM; for Internalization / Surface Binding: unblocked; for Specific Internalization / Specific Surface Binding: difference of unblocked and blocked values. The method, then:
as §1
Internalization assays were performed on poly-L-lysine coated 24-well cell culture plates. The day before the experiment, LNCaP cells (10^5 cells/well) were harvested and seeded to the wells. The cells were incubated with the ^68Ga-labeled compounds (250 µl, 30 nM, diluted in RPMI medium) for 45 min at 37 °C. […] The medium was then removed and the cells washed with ice-cold PBS buffer (3 × 1 ml). To remove surface bound compounds, ice-cold glycine buffer (2 × 0.5 ml, 50 mM, pH 2.8) was added to the wells and collected after 5 min in a combined fraction. After washing once with PBS (1 ml), NaOH (0.5 ml, 0.3 M) was added to the cells for lysation. Collected surface-bound, internalized fractions and standards from the stock solutions (25 µl) were measured in a γ-counter. Data was normalized and presented as percentage of the initially added radioactivity bound to 10^5 cells [%IA/10^5 cells].

The nature of series [4]: in vivo. Conditions: male, BALB/c nu/nu, mouse, iv, 500 pmol, total radioactivity.
Series [5] concerns LNCaP xenograft-bearing BALB/c nu/nu mice. The series can be described thus: Static small-animal PET imaging 1 h and 2 h p.i. Conditions: 68Ga-labeled, 0.5 nmol i.v., n = 1, SD from VOIs.
Series [6] is described as follows: Static small-animal PET imaging 1 h and 2 h p.i. The following applies: male, BALB/c nu/nu, mouse, iv, 500 pmol, total radioactivity.

Non-standard residues stand in square brackets, D forms with d. Residues, ends and D or L forms follow the SMILES beside them. *: point of attachment. DOTA = O=C(O)CN1CCN(CC(=O)O)CCN(CC(=O)*)CCN(CC(=O)O)CC1; EuK = O=C(O)CC[C@H](NC(=O)N[C@@H](CCCCN*)C(=O)O)C(=O)O; 2Nal = N[C@@H](Cc1ccc2ccccc2c1)C(=O)O; Trx = NC[C@H]1CC[C@H](C(=O)O)CC1

T1 sequence (Q04609 whole entry): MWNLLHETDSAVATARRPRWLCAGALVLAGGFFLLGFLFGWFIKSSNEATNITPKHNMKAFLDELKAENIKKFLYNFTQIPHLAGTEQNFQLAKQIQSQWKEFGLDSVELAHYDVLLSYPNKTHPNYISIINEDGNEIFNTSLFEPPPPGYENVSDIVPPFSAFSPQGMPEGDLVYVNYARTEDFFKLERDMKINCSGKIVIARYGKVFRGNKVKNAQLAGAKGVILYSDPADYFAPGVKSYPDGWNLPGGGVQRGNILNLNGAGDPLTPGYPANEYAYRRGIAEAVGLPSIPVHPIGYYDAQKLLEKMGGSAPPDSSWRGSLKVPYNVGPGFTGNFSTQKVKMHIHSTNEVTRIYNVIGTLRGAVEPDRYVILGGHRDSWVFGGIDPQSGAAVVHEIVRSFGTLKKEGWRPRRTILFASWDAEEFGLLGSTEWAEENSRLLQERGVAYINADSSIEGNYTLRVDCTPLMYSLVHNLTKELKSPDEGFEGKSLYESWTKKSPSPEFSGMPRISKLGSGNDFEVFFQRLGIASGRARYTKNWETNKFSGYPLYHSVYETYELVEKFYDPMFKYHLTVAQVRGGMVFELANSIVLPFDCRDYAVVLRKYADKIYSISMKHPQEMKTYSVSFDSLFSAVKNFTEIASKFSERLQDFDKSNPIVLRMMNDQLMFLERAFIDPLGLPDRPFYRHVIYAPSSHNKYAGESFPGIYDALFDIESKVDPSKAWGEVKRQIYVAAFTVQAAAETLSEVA

Turning to `O=C(O)CC[C@H](NC(=O)N[C@@H](CCCCNC(=O)[C@H](Cc1ccc2ccccc2c1)NC(=O)[C@H]1CC[C@H](CNC(=O)[C@H](Cc2c[nH]cn2)NC(=O)[C@H](CCC(=O)O)NC(=O)[C@H](Cc2c[nH]cn2)NC(=O)[C@H](CCC(=O)O)NC(=O)[C@H](Cc2c[nH]cn2)NC(=O)[C@H](CCC(=O)O)NC(=O)CN2CCN(CC(=O)O)CCN(CC(=O)O)CCN(CC(=O)O)CC2)CC1)C(=O)O)C(=O)O` [PS3, EuK-NaI-ChX-(HE)3-DOTA] ({DOTA}-EHEHEH[Trx][2Nal]-EuK), the logD in series [1] is -3.6 ± 0.3. For the same compound, the half-inhibitory concentration (IC50) in series [2] turned out to be 37 ± 11.4 nM. In addition, in series [3], the “Internalization Block” value was 0.112 ± 0.022 %Binding / %Internalization, the “Surface Binding Block” value was 0.069 ± 0.129 %Binding / %Internalization, the Internalization is listed as 0.67 ± 0.14 %Binding / %Internalization and the “Surface Binding” value is recorded as 1.32 ± 0.11 %Binding / %Internalization. In series [3], the “Specific Internalization” value is on record as 0.56 ± 0.42 %Binding / %Internalization and the “Specific Surface Binding” value is reported as 1.26 ± 1.97 %Binding / %Internalization. Moreover, in series [4] (SUV kidneys), the SUV at 1 h was found to be 3.05 ± 0.01 SUV and the SUV at 2 h worked out at 1.56 ± 0.13 SUV. Besides, in series [4] (SUV muscle), the SUV at 1 h was found to be 0.13 ± 0.03 SUV and the SUV at 2 h amounted to 0.1 ± 0.01 SUV. Also, in series [4] (SUV tumor), the SUV at 1 h amounted to 0.93 ± 0.08 SUV and the SUV at 2 h was 0.92 ± 0.06 SUV.

For `O=C(O)CC[C@H](NC(=O)N[C@@H](CCCCNC(=O)[C@H](Cc1ccc2ccccc2c1)NC(=O)[C@H]1CC[C@H](CNC(=O)[C@H](CCC(=O)O)NC(=O)[C@H](Cc2c[nH]cn2)NC(=O)[C@H](CCC(=O)O)NC(=O)[C@H](Cc2c[nH]cn2)NC(=O)[C@H](CCC(=O)O)NC(=O)[C@H](Cc2c[nH]cn2)NC(=O)CN2CCN(CC(=O)O)CCN(CC(=O)O)CCN(CC(=O)O)CC2)CC1)C(=O)O)C(=O)O` [PS4, EuK-NaI-ChX-(EH)3-DOTA] ({DOTA}-HEHEHE[Trx][2Nal]-EuK), in series [1], the logD was -3.9 ± 0.3. In addition, in series [3], the “Internalization Block” value is recorded as 0.149 ± 0.047 %Binding / %Internalization, the “Surface Binding Block” value is listed as 0.080 ± 0.009 %Binding / %Internalization, the Internalization was 0.81 ± 0.29 %Binding / %Internalization and the “Surface Binding” value is 1.43 ± 0.12 %Binding / %Internalization. In series [3], the “Specific Internalization” value was 0.66 ± 0.68 %Binding / %Internalization and the “Specific Surface Binding” value is listed as 1.35 ± 0.21 %Binding / %Internalization. Besides, in series [4] (SUV kidneys), the SUV at 1 h was found to be 3.81 ± 0.15 SUV and the SUV at 2 h was 2.77 ± 0.2 SUV. Also, in series [4] (SUV muscle), the SUV at 1 h is 0.11 ± 0.02 SUV and the SUV at 2 h turned out to be 0.1 ± 0.03 SUV. Besides, in series [4] (SUV tumor), the SUV at 1 h came to 1.15 ± 0.04 SUV and the SUV at 2 h was 1.07 ± 0.09 SUV.

For the compound `O=C(O)CC[C@H](NC(=O)N[C@@H](CCCCNC(=O)[C@H](Cc1ccc2ccccc2c1)NC(=O)[C@H]1CC[C@H](CNC(=O)[C@H](Cc2c[nH]cn2)NC(=O)[C@H](CCC(=O)O)NC(=O)[C@H](Cc2c[nH]cn2)NC(=O)[C@H](CCC(=O)O)NC(=O)[C@H](Cc2c[nH]cn2)NC(=O)[C@H](CCC(=O)O)NC(=O)[C@H](Cc2c[nH]cn2)NC(=O)[C@H](CCC(=O)O)NC(=O)CN2CCN(CC(=O)O)CCN(CC(=O)O)CCN(CC(=O)O)CC2)CC1)C(=O)O)C(=O)O` [PS5, EuK-NaI-ChX-(HE)4-DOTA] ({DOTA}-EHEHEHEH[Trx][2Nal]-EuK), the logD in series [1] is -3.74 ± 0.05. Further, in series [2], the 50% inhibitory concentration (IC50) was 46.7 ± 37.3 nM. In series [3], the “Internalization Block” value is recorded as 0.155 ± 0.022 %Binding / %Internalization, the “Surface Binding Block” value was 0.082 ± 0.029 %Binding / %Internalization, the Internalization is given as 0.67 ± 0.06 %Binding / %Internalization and the “Surface Binding” value is recorded as 1.41 ± 0.10 %Binding / %Internalization. Further, in series [3], the “Specific Internalization” value was 0.51 ± 0.25 %Binding / %Internalization and the “Specific Surface Binding” value is recorded as 1.33 ± 0.42 %Binding / %Internalization. In series [4] (SUV kidneys), the SUV at 1 h came out at 3.13 ± 0.16 SUV and the SUV at 2 h is 2.37 ± 0.27 SUV. Further, in series [4] (SUV muscle), the SUV at 1 h came out at 0.12 ± 0.02 SUV and the SUV at 2 h is 0.09 ± 0.02 SUV. For the same compound, in series [4] (SUV tumor), the SUV at 1 h amounted to 0.86 ± 0.06 SUV and the SUV at 2 h was 0.94 ± 0.07 SUV.

As for `O=C(O)CC[C@H](NC(=O)N[C@@H](CCCCNC(=O)[C@H](Cc1ccc2ccccc2c1)NC(=O)[C@H]1CC[C@H](CNC(=O)CN2CCN(CC(=O)O)CCN(CC(=O)O)CCN(CC(=O)O)CC2)CC1)C(=O)O)C(=O)O` [PSMA-617, EuK-NaI-ChX-DOTA], in series [1], the “Partition Coefficient [logDoctanol/PBS]” value was -2.7 ± 0.2. This compound also came in with a half-inhibitory concentration (IC50) in series [2] of 21.8 ± 3.13 nM. Moreover, in series [3], the “Internalization Block” value is on record as 0.210 ± 0.036 %Binding / %Internalization, the “Surface Binding Block” value is listed as 0.062 ± 0.013 %Binding / %Internalization, the Internalization is on record as 0.50 ± 0.05 %Binding / %Internalization and the “Surface Binding” value is recorded as 0.79 ± 0.13 %Binding / %Internalization. In addition, in series [3], the “Specific Internalization” value is given as 0.28 ± 0.27 %Binding / %Internalization and the “Specific Surface Binding” value is recorded as 0.72 ± 0.38 %Binding / %Internalization. In series [5] (static PET 1 h p.i.), this compound showed an SUV kidneys of 1.25 ± 0.14 g/mL, an SUV muscle of 0.073 ± 0.004 g/mL and an SUV tumor of 0.63 ± 0.02 g/mL. In series [5] (static PET 2 h p.i.), this compound displayed an SUV kidneys of 0.28 ± 0.06 g/mL, an SUV muscle of 0.02 ± 0.01 g/mL and an SUV tumor of 0.52 ± 0.16 g/mL.

Turning to `O=C(O)CC[C@H](NC(=O)N[C@@H](CCCCNC(=O)[C@H](Cc1c[nH]cn1)NC(=O)[C@H](CCC(=O)O)NC(=O)[C@H](Cc1c[nH]cn1)NC(=O)[C@H](CCC(=O)O)NC(=O)[C@H](Cc1c[nH]cn1)NC(=O)[C@H](CCC(=O)O)NC(=O)[C@H](Cc1ccc2ccccc2c1)NC(=O)[C@H]1CC[C@H](CNC(=O)CN2CCN(CC(=O)O)CCN(CC(=O)O)CCN(CC(=O)O)CC2)CC1)C(=O)O)C(=O)O` [[^68Ga]Ga-PS1, metal not drawn] ({DOTA-Trx}-[2Nal]EHEHEH-EuK), the SUV at 1 h in series [6] (tumor (LNCaP xenograft), SUV tumor, 68Ga-labeled, 0.5 nmol i.v., static PET 1 h p.i., n = 1, SD from VOIs) is 0.43 ± 0.06 SUV. Also, in series [6] (tumor (LNCaP xenograft), SUV tumor, 68Ga-labeled, 0.5 nmol i.v., static PET 2 h p.i., n = 1, SD from VOIs), the SUV at 2 h worked out at 0.3 ± 0.11 SUV.

Consider `O=C(O)CC[C@H](NC(=O)N[C@@H](CCCCNC(=O)[C@H](Cc1ccc2ccccc2c1)NC(=O)[C@H](Cc1c[nH]cn1)NC(=O)[C@H](CCC(=O)O)NC(=O)[C@H](Cc1c[nH]cn1)NC(=O)[C@H](CCC(=O)O)NC(=O)[C@H](Cc1c[nH]cn1)NC(=O)[C@H](CCC(=O)O)NC(=O)[C@H]1CC[C@H](CNC(=O)CN2CCN(CC(=O)O)CCN(CC(=O)O)CCN(CC(=O)O)CC2)CC1)C(=O)O)C(=O)O` [[^68Ga]Ga-PS2, metal not drawn] ({DOTA-Trx}-EHEHEH[2Nal]-EuK), for which, in series [6] (tumor / kidney), the tissue to tissue ratio at 1 h amounted to 0.47 ± 0.14 and the tissue to tissue ratio at 2 h was found to be 0.73 ± 0.14.
